This assay concerns panelist. Kind of assay: Odor threshold concentration (Log T / Log ODT) by gas chromatograph with sniff port. Details: species or system human. The protocol: “High impact perfume raw materials” should be understood as perfume raw materials having a Log T<−4. The odor threshold concentration of a chemical compound is determined in part by its shape, polarity, partial charges and molecular mass. For convenience, the threshold concentration is presented as the common logarithm of the threshold concentration, i.e., Log [Threshold] (“Log T”).
The odor threshold concentration of a perfuming compound is determined by using a gas chromatograph (“GC”). Specifically, the gas chromatograph is calibrated to determine the exact volume of the perfume oil ingredient injected by the syringe, the precise split ratio, and the hydrocarbon response using a hydrocarbon standard of known concentration and chain-length distribution. The air flow rate is accurately measured and, assuming the duration of a human inhalation to last 12 seconds, the sampled volume is calculated. […] To determine the threshold concentration, solutions are delivered to the sniff port at the back-calculated concentration. A panelist sniffs the GC effluent and identifies the retention time when odor is noticed. The average across all panelists determines the odor threshold concentration of the perfuming compound. The determination of odor threshold is described in more detail in C.

[1] abbreviates: ingredient of Perfume oil B (Table 3).
The mark [2] stands for this setting: ingredient of Perfume oil D (Table 7).
[3] abbreviates: ingredient of Perfume oil C (Table 5).
Where [4] appears, read: ingredient of Perfume oil A (Table 1).

For “(+−)-4-METHYLENE-2-PHENYLTETRAHYDRO-2H-PYRAN (A) + (+−)-4-METHYL-6-PHENYL-3,6-DIHYDRO-2H-PYRAN (B) + (+−)-4-METHYL-2-PHENYL-3,6-DIHYDRO-2H-PYRAN (C)”, the “Log ODT” value under setting [1] is listed as less than −4 and the “Log ODT” value under setting [2] is on record as less than −4.
Regarding “(+)-(3S)-3-[(1R)-4-METHYL-3-CYCLOHEXEN-1-YL]BUTANAL (A) + (+)-(3R)-3-[(1R)-4-METHYL-3-CYCLOHEXEN-1-YL]BUTANAL”, under setting [2], the “Log ODT” value was more than −4.
Regarding “(2Z)-1,1-DIETHOXY-3,7-DIMETHYL-2,6-OCTADIENE (A) + (2E)-1,1-DIETHOXY-3,7-DIMETHYL-2,6-OCTADIENE (B)”, the “Log ODT” value runs as follows: under setting [1], more than −4; under setting [2], more than −4.
As to `CC(C)c1cccc(C(C)CC=O)c1` (racemic) [(+−)-3-(3-ISOPROPYL-1-PHENYL)BUTANAL], under setting [1], the “Log ODT” value is on record as less than −4.
As to “(+−)-(3E)-3-METHYL-4-(2,6,6-TRIMETHYL-2-CYCLOHEXEN-1-YL)-3-BUTEN-2-ONE (A) + (+−)-(1E)-1-(2,6,6-TRIMETHYL-2-CYCLOHEXEN-1-YL)-1-PENTEN-3-ONE (B)”, under setting [3], the “Log ODT” value is reported as less than −4.
As for “TRICYCLO[5.2.1.0~2,6~]DEC-3-EN-8-YL ACETATE (A) + TRICYCLO[5.2.1.0~2,6~]DEC-4-EN-8-YL ACETATE (B)”, the “Log ODT” value under setting [4] is on record as more than −4 and the “Log ODT” value under setting [1] was more than −4.
As for “(2RS,4SR)-4-METHYL-2-(2-METHYL-1-PROPEN-1-YL)TETRAHYDRO-2H-PYRAN (A) + (2RS,4RS)-4-METHYL-2-(2-METHYL-1-PROPEN-1-YL)TETRAHYDRO-2H-PYRAN (B)”, the “Log ODT” value is recorded as more than −4 under setting [4] and more than −4 under setting [1].
As for `CCCCC[C@H]1C(=O)CC[C@@H]1CC(=O)OC` (racemic) [METHYL 2-((1RS,2RS)-3-OXO-2-PENTYLCYCLOPENTYL) ACETATE], the “Log ODT” value was more than −4 under setting [4] and more than −4 under setting [3].
In the case of “10-UNDECENAL (A) + (9E)-9-UNDECENAL (B) + (9Z)-9-UNDECENAL (C)”, the “Log ODT” value by setting is: under setting [1], less than −4; under setting [3], less than −4.
“3,5,6-TRIMETHYL-3-CYCLOHEXENE-1-CARBALDEHYDE (A) + 2,4,6-TRIMETHYL-3-CYCLOHEXENE-1-CARBALDEHYDE (B)”: the “Log ODT” value under setting [3] is recorded as more than −4.
On to “2-METHYLBUTYL SALICYLATE (A) + PENTYL SALICYLATE (B)”, for which the “Log ODT” value under setting [4] is more than −4.
Regarding “(1 RS,2RS)-2,4-DIMETHYL-3-CYCLOHEXENE-1-CARBALDEHYDE (A) + (1 RS,2SR)-2,4-DIMETHYL-3-CYCLOHEXENE-1-CARBALDEHYDE (B)”, the “Log ODT” value is more than −4 under setting [4] and more than −4 under setting [3].
As for “3,7-DIMETHYL-2,6-NONADIENENITRILE (A) + 3,7-DIMETHYL-3,6-NONADIENENITRILE (B)”, the “Log ODT” value under setting [3] is more than −4.
“3-(4-ETHYLPHENYL)-2,2-DIMETHYLPROPANAL (A) + 3-(2-ETHYLPHENYL)-2,2-DIMETHYLPROPANAL (B)”: under setting [1], the “Log ODT” value is more than −4.
As to `c1ccc(Oc2ccccc2)cc1` [1,1′-OXYDIBENZENE], the “Log ODT” value under setting [4] is on record as more than −4.
As to “1-OXA-12-CYCLOHEXADECEN-2-ONE (A) + 1-OXA-13-CYCLOHEXADECEN-2-ONE (B)”, under setting [3], the “Log ODT” value is given as more than −4.
As to “.ALPHA.-DIHYDROTERPINEOL (A) + .BETA.-DIHYDROTERPINEOL (B)”, the “Log ODT” value under setting [1] is more than −4.

The values are drawn from patent publication US20230022488A1, “Laundry Composition” (FIRMENICH SA, priority 2019, published 2023).
